Like-named read-outs stand apart in the source and are kept apart here. Numbered stars: 1 amine (or outer) side, 2 acyl side, 3 side chain; on linkers, the order of the positions; unused ones are H or OH. Square brackets hold non-standard residues; d marks the D form. Side chains are listed from the residue outwards. Peptide text beside a SMILES is read from it. * marks the point of attachment. C18 diacid = O=C(O)CCCCCCCCCCCCCCCCC(=O)*; γGlu = O=C(O)[C@H](CCC(=O)[*:2])N[*:1]; Stearoyl = CCCCCCCCCCCCCCCCCC(=O)*; Palmitoyl = CCCCCCCCCCCCCCCC(=O)*; αMeF = C[C@](N)(Cc1ccccc1)C(=O)O; αMeK = C[C@](N)(CCCCN)C(=O)O; Lauroyl = CCCCCCCCCCCC(=O)*; αMeS = C[C@](N)(CO)C(=O)O; AEEA = NCCOCCOCC(=O)O; Aib = CC(C)(N)C(=O)O
Experiments:
Assay type in all cases: cell-based
[1] = molecular target: T1, human glucagon receptor (GCGR) (Homo sapiens, UniProt P47871); assay: cAMP assay, human GCGR cells; conditions: Table 9, bis-lipidated peptides
T1 construct: expressed in transfected cells; host or cells: HEK293 cells or CHO cells
T1 sequence (P47871 26-477): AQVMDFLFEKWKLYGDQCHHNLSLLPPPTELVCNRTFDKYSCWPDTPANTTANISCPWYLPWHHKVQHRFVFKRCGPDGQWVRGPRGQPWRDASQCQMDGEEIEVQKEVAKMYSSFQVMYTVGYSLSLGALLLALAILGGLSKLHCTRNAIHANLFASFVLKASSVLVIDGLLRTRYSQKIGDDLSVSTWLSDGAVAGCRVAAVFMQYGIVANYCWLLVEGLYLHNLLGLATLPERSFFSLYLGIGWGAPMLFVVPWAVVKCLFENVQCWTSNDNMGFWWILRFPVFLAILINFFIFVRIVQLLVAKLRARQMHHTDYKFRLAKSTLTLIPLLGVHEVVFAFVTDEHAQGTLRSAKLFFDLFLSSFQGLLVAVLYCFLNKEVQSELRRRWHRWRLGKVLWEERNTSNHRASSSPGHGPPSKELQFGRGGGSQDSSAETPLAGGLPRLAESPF
Description: (§1) Sample dilutions are made in duplicate.
(§2) A frozen cryo-vial of cells expressing the receptor of interest is thawed rapidly in a water-bath, transferred to pre-warmed assay buffer and spun at 240×g for 5 minutes. Cells are re-suspended in assay buffer at a batch-dependent optimized concentration (e.g. hGCGR cells at 2×10^5 cells/ml, hGLP-1R and hGIPR cells at 1×10^5 cells/ml).
(§3) To this, 5 μL cell suspension is added and the plates incubated at room temperature for 30 minutes.
(§4) cAMP levels are measured using a commercially available cAMP dynamic 2 HTRF kit (Cisbio, Cat #62AM4PEJ), following the two step protocol as per manufacturer's recommendations. In brief; anti-cAMP cryptate (donor fluorophore) and cAMP-d2 (acceptor fluorophore) are made up separately by diluting each 1/20 in conjugate & lysis buffer provided in the kit. 5 μL anti-cAMP cryptate is added to wells of the assay plate, and 5 μL cAMP-d2 is added to wells except non-specific binding (NSB) wells, to which conjugate and lysis buffer are added. […] EC50 values of the synthetic peptides determined in cAMP assays are then determined.
(§5) Data is transformed to % Delta F as described in the manufacturer's guidelines and analyzed by 4-parameter logistic fit to determine EC50 values. […] To compare the balance of activities at the GLP-1R and GCGR between different peptides and across different conditions, these can be correlated, where the EC50's are related to those of comparator peptides.

[2] = molecular target: T2, human glucose-dependent insulinotropic peptide receptor (GIPR) (Homo sapiens, UniProt P48546); assay: cAMP assay, human GIPR cells; conditions: Table 9, bis-lipidated peptides
T2 construct: expressed in transfected cells; host or cells: HEK293 cells or CHO cells
T2 sequence (P48546 22-466): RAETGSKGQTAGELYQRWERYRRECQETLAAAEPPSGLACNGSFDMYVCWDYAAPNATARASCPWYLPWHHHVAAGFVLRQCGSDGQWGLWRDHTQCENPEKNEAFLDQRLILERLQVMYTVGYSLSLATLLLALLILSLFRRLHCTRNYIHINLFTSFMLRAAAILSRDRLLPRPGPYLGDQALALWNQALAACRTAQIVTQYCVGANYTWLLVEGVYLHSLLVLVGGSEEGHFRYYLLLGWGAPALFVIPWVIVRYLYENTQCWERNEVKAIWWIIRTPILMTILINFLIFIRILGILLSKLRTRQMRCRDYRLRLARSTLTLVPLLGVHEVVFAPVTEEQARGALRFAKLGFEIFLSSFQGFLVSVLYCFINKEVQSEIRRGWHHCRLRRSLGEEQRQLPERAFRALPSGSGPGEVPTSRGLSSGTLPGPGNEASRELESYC
Description: as §1, §2, §3, §4, §5

[3] = molecular target: T3, human GLP-1 receptor (GLP-1R) (Homo sapiens, UniProt P43220); assay: cAMP assay, human GLP-1R cells
T3 construct: expressed in transfected cells; host or cells: HEK293 cells or CHO cells
T3 sequence (P43220 24-463): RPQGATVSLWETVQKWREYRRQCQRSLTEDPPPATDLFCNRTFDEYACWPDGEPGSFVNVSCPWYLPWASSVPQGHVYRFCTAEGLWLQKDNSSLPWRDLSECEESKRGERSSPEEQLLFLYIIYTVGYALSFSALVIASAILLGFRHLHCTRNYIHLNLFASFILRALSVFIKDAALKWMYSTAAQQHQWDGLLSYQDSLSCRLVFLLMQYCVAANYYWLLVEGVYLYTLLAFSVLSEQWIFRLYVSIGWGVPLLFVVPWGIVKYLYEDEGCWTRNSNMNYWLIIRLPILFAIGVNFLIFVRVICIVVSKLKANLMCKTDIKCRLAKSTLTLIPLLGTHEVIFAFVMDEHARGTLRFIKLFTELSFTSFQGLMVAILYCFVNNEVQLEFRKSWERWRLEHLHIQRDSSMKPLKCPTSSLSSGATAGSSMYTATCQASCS
In short: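 Peptide-stimulated cAMP measured by two-step HTRF after a 30 min room-temperature incubation with receptor-expressing cells (hGLP-1R, hGIPR at 1×10^5 cells/ml; hGCGR at 2×10^5 cells/ml). Duplicate dilutions; EC50 from 4-parameter logistic fit of % Delta F.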

[4] = first replicate, read-out: Primary assay EC50 Gluc-R (n1)
[5] = second replicate, read-out: Primary assay EC50 Gluc-R (n2)
[6] = first replicate, read-out: Primary assay EC50 GIP-R (n1)
[7] = second replicate, read-out: Primary assay EC50 GIP-R (n2)
[8] = cAMP activity, mean of n1 and n2, read-out: Mean pM GLP-1R
[9] = cAMP activity, second determination (n2), read-out: Primary assay EC50 GLP-1R n2

| EC50 [1, 4] [nM] | EC50 [1, 5] [nM] | EC50 [2, 6] [nM] | EC50 [2, 7] [nM] | EC50 [3, 8] [pM] | EC50 [3, 9] [pM] | Structure (SMILES) | further results |
| --- | --- | --- | --- | --- | --- | --- | --- |
| ≥ 21.5 | ≥ 21.5 | ≥ 21.5 | ≥ 21.5 |  |  | CCCCCCCCCCCCCCCCCC(=O)N[C@@H](CCC(=O)NCCOCCOCC(=O)NCCOCCOCC(=O)NCCCC[C@H](NC(=O)[C@H](C)NC(=O)[C@@H](NC(=O)[C@](C)(Cc1ccccc1)NC(=O)[C@H](CCC(=O)O)NC(=O)[C@](C)(CCCCN)NC(=O)[C@H](C)NC(=O)[C@H](C)NC(=O)[C@H](CCC(=O)O)NC(=O)CNC(=O)[C@H](CCC(=O)O)NC(=O)[C@H](CC(C)C)NC(=O)[C@H](CCCCNC(=O)COCCOCCNC(=O)COCCOCCNC(=O)CC[C@H](NC(=O)CCCCCCCCCCCCCCCCC)C(=O)O)NC(=O)[C@H](CO)NC(=O)[C@](C)(CO)NC(=O)[C@@H](NC(=O)[C@H](CC(=O)O)NC(=O)[C@H](CO)NC(=O)[C@@H](NC(=O)[C@](C)(Cc1ccccc1)NC(=O)[C@H](CO)NC(=O)CNC(=O)[C@H](CCC(=O)O)NC(=O)C(C)(C)NC(=O)[C@@H](N)Cc1c[nH]cn1)[C@@H](C)O)C(C)C)[C@@H](C)CC)C(=O)N[C@H](C(=O)N[C@H](C(=O)N[C@@H](CCC(=O)O)C(=O)NCC(=O)NCC(N)=O)C(C)C)C(C)C)C(=O)O [compound 410] (H-H[Aib]EGS[αMeF]TSDV[αMeS]SK([AEEA-AEEA-γGlu-Stearoyl])LEGEAA[αMeK]E[αMeF]IAK([AEEA-AEEA-γGlu-Stearoyl])VVEGG-NH2; N-terminus assumed) |  |
|  |  |  |  | 62 |  | CC[C@H](C)[C@H](NC(=O)[C@](C)(Cc1ccccc1)NC(=O)[C@H](CCC(=O)O)NC(=O)[C@](C)(CCCCN)NC(=O)[C@H](CCCCNC(=O)COCCOCCNC(=O)COCCOCCNC(=O)CC[C@H](NC(=O)CCCCCCCCCCCCCCCCC(=O)O)C(=O)O)NC(=O)[C@H](C)NC(=O)[C@H](CCC(=O)O)NC(=O)CNC(=O)[C@H](CCC(=O)O)NC(=O)[C@H](CC(C)C)NC(=O)[C@](C)(Cc1ccccc1)NC(=O)[C@H](CO)NC(=O)[C@](C)(CO)NC(=O)[C@@H](NC(=O)[C@H](CC(=O)O)NC(=O)[C@H](CO)NC(=O)[C@@H](NC(=O)[C@](C)(Cc1ccccc1)NC(=O)[C@H](CO)NC(=O)CNC(=O)[C@H](CCC(=O)O)NC(=O)C(C)(C)NC(=O)[C@@H](N)Cc1c[nH]cn1)[C@@H](C)O)C(C)C)C(=O)N[C@@H](C)C(=O)N[C@@](C)(Cc1ccccc1)C(=O)N[C@H](C(=O)N[C@H](C(=O)N[C@@](C)(CCCCN)C(=O)NCC(=O)NCC(N)=O)C(C)C)C(C)C [compound 110] (H-H[Aib]EGS[αMeF]TSDV[αMeS]S[αMeF]LEGEAK([AEEA-AEEA-γGlu-C18 diacid])[αMeK]E[αMeF]IA[αMeF]VV[αMeK]GG-NH2; N-terminus assumed) |  |

Continued, molecule first:

| Structure (SMILES) | EC50 [1, 4] [nM] | EC50 [1, 5] [nM] | EC50 [2, 6] [nM] | EC50 [2, 7] [nM] | EC50 [3, 8] [pM] | EC50 [3, 9] [pM] | further results |
| --- | --- | --- | --- | --- | --- | --- | --- |
| CCCCCCCCCCCCCCCC(=O)N[C@@H](CCC(=O)NCCOCCOCC(=O)NCCOCCOCC(=O)NCCCC[C@H](NC(=O)[C@H](C)NC(=O)[C@@H](NC(=O)[C@](C)(Cc1ccccc1)NC(=O)[C@H](CCC(=O)O)NC(=O)[C@](C)(CCCCN)NC(=O)[C@H](C)NC(=O)[C@H](C)NC(=O)[C@H](CCC(=O)O)NC(=O)CNC(=O)[C@H](CCC(=O)O)NC(=O)[C@H](CC(C)C)NC(=O)[C@H](CCCCNC(=O)COCCOCCNC(=O)COCCOCCNC(=O)CC[C@H](NC(=O)CCCCCCCCCCCCCCC)C(=O)O)NC(=O)[C@H](CO)NC(=O)[C@](C)(CO)NC(=O)[C@@H](NC(=O)[C@H](CC(=O)O)NC(=O)[C@H](CO)NC(=O)[C@@H](NC(=O)[C@](C)(Cc1ccccc1)NC(=O)[C@H](CO)NC(=O)CNC(=O)[C@H](CCC(=O)O)NC(=O)C(C)(C)NC(=O)[C@@H](N)Cc1c[nH]cn1)[C@@H](C)O)C(C)C)[C@@H](C)CC)C(=O)N[C@H](C(=O)N[C@H](C(=O)N[C@@H](CCC(=O)O)C(=O)NCC(=O)NCC(N)=O)C(C)C)C(C)C)C(=O)O [compound 409] (H-H[Aib]EGS[αMeF]TSDV[αMeS]SK([AEEA-AEEA-γGlu-Palmitoyl])LEGEAA[αMeK]E[αMeF]IAK([AEEA-AEEA-γGlu-Palmitoyl])VVEGG-NH2; N-terminus assumed) | ≥ 21.5 | ≥ 21.5 | ≥ 21.5 | ≥ 21.5 |  |  |  |
| CC[C@H](C)[C@H](NC(=O)[C@](C)(Cc1ccccc1)NC(=O)[C@H](CCC(=O)O)NC(=O)[C@H](CCCCNC(=O)COCCOCCNC(=O)COCCOCCNC(=O)CC[C@H](NC(=O)CCCCCCCCCCCCCCC(=O)O)C(=O)O)NC(=O)[C@H](C)NC(=O)[C@H](C)NC(=O)[C@H](CCC(=O)O)NC(=O)CNC(=O)[C@H](CCC(=O)O)NC(=O)[C@H](CC(C)C)NC(=O)[C@](C)(Cc1ccccc1)NC(=O)[C@H](CO)NC(=O)[C@](C)(CO)NC(=O)[C@@H](NC(=O)[C@H](CC(=O)O)NC(=O)[C@H](CO)NC(=O)[C@@H](NC(=O)[C@](C)(Cc1ccccc1)NC(=O)[C@H](CO)NC(=O)CNC(=O)[C@H](CCC(=O)O)NC(=O)C(C)(C)NC(=O)[C@@H](N)Cc1c[nH]cn1)[C@@H](C)O)C(C)C)C(=O)N[C@@H](C)C(=O)N[C@@](C)(Cc1ccccc1)C(=O)N[C@H](C(=O)N[C@H](C(=O)N[C@@](C)(CCCCN)C(=O)NCC(=O)NCC(N)=O)C(C)C)C(C)C [compound 109] |  |  |  |  | 34 | 34.6 |  |
| CCCCCCCCCCCC(=O)N[C@@H](CCC(=O)NCCOCCOCC(=O)NCCOCCOCC(=O)NCCCC[C@H](NC(=O)[C@H](C)NC(=O)[C@@H](NC(=O)[C@H](Cc1ccccc1)NC(=O)[C@H](CCC(=O)O)NC(=O)[C@](C)(CCCCN)NC(=O)[C@H](C)NC(=O)[C@H](C)NC(=O)[C@H](CCC(=O)O)NC(=O)[C@H](CCCCNC(=O)COCCOCCNC(=O)COCCOCCNC(=O)CC[C@H](NC(=O)CCCCCCCCCCC)C(=O)O)NC(=O)[C@H](CCC(=O)O)NC(=O)[C@H](CC(C)C)NC(=O)[C@H](CCCCNC(=O)COCCOCCNC(=O)COCCOCCNC(=O)CC[C@H](NC(=O)CCCCCCCCCCC)C(=O)O)NC(=O)[C@H](CO)NC(=O)[C@](C)(CO)NC(=O)[C@@H](NC(=O)[C@H](CC(=O)O)NC(=O)[C@H](CO)NC(=O)[C@@H](NC(=O)[C@](C)(Cc1ccccc1)NC(=O)[C@H](CO)NC(=O)CNC(=O)[C@H](CCC(=O)O)NC(=O)C(C)(C)NC(=O)[C@@H](N)Cc1c[nH]cn1)[C@@H](C)O)C(C)C)[C@@H](C)CC)C(=O)N[C@H](C(=O)N[C@H](C(=O)N[C@@H](CCC(=O)O)C(=O)NCC(=O)NCC(N)=O)C(C)C)C(C)C)C(=O)O [compound 463] (H-H[Aib]EGS[αMeF]TSDV[αMeS]SK([AEEA-AEEA-γGlu-Lauroyl])LEK([AEEA-AEEA-γGlu-Lauroyl])EAA[αMeK]EFIAK([AEEA-AEEA-γGlu-Lauroyl])VVEGG-NH2; N-terminus assumed) |  |  |  |  |  |  | EC50 ([3]; Table 11, tris-lipidated peptides, mean of n1 and n2, read-out: Primary assay EC50 Mean pM GLP-1R): 82 pM; EC50 ([3]; Table 11, tris-lipidated peptides, replicate n1, read-out: Primary assay EC50 GLP-1R n1): 69.5 pM; EC50 ([3]; Table 11, tris-lipidated peptides, replicate n2, read-out: Primary assay EC50 GLP-1R n2): 94.4 pM |
| CCCCCCCCCCCCCCCC(=O)N[C@@H](CCC(=O)NCCCC[C@H](NC(=O)[C@H](CCC(=O)O)NC(=O)[C@H](CC(C)C)NC(=O)[C@](C)(Cc1ccccc1)NC(=O)[C@H](CO)NC(=O)[C@](C)(CO)NC(=O)[C@@H](NC(=O)[C@H](CC(=O)O)NC(=O)[C@H](CO)NC(=O)[C@@H](NC(=O)[C@](C)(Cc1ccccc1)NC(=O)[C@H](CO)NC(=O)CNC(=O)[C@H](CCC(=O)O)NC(=O)C(C)(C)NC(=O)[C@@H](N)Cc1c[nH]cn1)[C@@H](C)O)C(C)C)C(=O)N[C@@H](CCC(=O)O)C(=O)N[C@@H](C)C(=O)N[C@@H](C)C(=O)N[C@@](C)(CCCCN)C(=O)N[C@@H](CCC(=O)O)C(=O)N[C@@](C)(Cc1ccccc1)C(=O)N[C@H](C(=O)N[C@@H](C)C(=O)N[C@@](C)(Cc1ccccc1)C(=O)N[C@H](C(=O)N[C@H](C(=O)N[C@@](C)(CCCCN)C(=O)NCC(=O)NCC(N)=O)C(C)C)C(C)C)[C@@H](C)CC)C(=O)O [compound 84] (H-H[Aib]EGS[αMeF]TSDV[αMeS]S[αMeF]LEK([γGlu-Palmitoyl])EAA[αMeK]E[αMeF]IA[αMeF]VV[αMeK]GG-NH2; N-terminus assumed) |  |  |  |  | 8 | 8.1 |  |
